Data taken from publication PMC4640066 (Nature Communications, 2015).

Biological target: T1, γ-TuSC (Saccharomyces cerevisiae, UniProt P53378)
T1 construct: made in house; host or cells: HighFive insect cells
T1 sequence (P53378 1-473): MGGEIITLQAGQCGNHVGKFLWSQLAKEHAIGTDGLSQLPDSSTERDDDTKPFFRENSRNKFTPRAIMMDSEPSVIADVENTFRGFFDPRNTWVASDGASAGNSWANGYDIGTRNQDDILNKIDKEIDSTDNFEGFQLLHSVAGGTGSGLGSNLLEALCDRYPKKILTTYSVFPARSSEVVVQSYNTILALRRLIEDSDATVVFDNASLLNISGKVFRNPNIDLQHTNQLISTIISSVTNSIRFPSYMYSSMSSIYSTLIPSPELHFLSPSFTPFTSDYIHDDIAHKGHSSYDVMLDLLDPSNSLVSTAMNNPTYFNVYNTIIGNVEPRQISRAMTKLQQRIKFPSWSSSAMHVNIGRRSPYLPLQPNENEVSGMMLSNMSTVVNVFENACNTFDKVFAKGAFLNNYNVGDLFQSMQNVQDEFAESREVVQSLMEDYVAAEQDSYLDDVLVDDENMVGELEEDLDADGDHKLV
T1 sequence (P38863 1-823 partner): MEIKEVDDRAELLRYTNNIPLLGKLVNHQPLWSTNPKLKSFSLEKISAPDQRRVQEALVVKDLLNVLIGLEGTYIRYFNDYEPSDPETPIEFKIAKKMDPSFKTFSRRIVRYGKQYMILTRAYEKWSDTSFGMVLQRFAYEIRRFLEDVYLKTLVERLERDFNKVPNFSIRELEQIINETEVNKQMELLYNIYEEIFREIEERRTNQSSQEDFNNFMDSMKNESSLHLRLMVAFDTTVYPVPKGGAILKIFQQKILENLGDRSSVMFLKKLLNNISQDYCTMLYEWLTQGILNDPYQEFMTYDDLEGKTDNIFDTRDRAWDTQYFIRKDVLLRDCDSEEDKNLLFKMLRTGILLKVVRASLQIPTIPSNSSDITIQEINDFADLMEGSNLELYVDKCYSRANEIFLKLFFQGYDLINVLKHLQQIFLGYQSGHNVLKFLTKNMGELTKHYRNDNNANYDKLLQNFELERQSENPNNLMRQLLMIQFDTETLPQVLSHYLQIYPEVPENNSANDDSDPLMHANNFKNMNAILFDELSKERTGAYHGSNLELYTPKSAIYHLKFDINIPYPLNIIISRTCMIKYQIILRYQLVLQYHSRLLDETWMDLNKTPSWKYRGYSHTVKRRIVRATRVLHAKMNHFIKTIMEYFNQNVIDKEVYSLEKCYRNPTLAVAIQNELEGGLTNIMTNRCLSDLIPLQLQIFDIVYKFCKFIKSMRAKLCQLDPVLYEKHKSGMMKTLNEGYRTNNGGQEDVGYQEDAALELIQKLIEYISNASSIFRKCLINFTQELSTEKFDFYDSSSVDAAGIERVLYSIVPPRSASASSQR
T1 sequence (P53540 1-846 partner): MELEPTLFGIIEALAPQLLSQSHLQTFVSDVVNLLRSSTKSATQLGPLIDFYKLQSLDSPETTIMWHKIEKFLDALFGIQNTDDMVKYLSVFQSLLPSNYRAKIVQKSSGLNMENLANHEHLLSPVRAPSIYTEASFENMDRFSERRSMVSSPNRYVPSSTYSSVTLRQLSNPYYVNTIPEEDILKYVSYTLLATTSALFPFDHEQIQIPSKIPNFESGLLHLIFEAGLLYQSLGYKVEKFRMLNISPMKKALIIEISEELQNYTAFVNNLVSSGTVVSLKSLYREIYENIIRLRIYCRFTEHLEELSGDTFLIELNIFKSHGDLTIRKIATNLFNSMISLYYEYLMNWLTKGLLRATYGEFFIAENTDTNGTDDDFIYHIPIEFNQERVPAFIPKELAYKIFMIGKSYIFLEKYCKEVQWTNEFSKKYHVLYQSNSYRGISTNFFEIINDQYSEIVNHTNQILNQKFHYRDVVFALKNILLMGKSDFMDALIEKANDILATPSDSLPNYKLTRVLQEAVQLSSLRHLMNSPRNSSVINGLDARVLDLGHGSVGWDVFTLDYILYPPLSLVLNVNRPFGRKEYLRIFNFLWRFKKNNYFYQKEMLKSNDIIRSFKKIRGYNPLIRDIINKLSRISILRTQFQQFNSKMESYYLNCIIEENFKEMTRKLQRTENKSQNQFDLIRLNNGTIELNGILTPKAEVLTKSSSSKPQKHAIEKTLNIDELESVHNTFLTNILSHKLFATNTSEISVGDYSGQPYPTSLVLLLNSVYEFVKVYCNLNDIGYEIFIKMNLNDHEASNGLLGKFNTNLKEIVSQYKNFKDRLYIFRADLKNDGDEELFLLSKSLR
Test: γ-TuSC-stimulated MT polymerization in vitro
Assay type: biochemical
Conditions: same concentration as ineffective on glutamate, paclitaxel and Tau-induced MT formation
Experimental: For glutamate-stimulated MT polymerization, 1 mg ml^−1 porcine brain α/β-tubulin was mixed with glutamate (final concentration 1 M) and GTP (final concentration 1 mM) in RB buffer on ice. For paclitaxel-stimulated MT polymerization, 1 mg ml^−1 porcine brain α/β-tubulin was mixed with paclitaxel (final concentration 10 μM) and GTP (final concentration 1 mM) in RB buffer on ice. For recombinant Tau protein-stimulated MT polymerization, 1 mg ml^−1 α/β-tubulin purified from porcine brain and Tau protein were mixed with GTP (final concentration 1 mM) in RB buffer on ice. For γ-TuSC-stimulated MT polymerization, γ-TuSC was mixed with GTP (final concentration 1 mM). One of the compounds and α/β-tubulin were then added. Samples were transferred into cuvettes. Tubulin polymerization was monitored using the absorbance at 350 nm at 37 °C using a thermostatic spectrophotometer (Beckman Coulter).

SMILES: COc1cc2c(=O)c(-c3cc(OC)c4c(c3OC)OCO4)coc2cc1OCc1ccccc1 [Gatastatin, O^7-demethylbenzyl AG1]
- Effect on γ-TuSC-stimulated MT polymerization: blocked γ-TuSC-stimulated MT polymerization
